The source of these data is patent publication US9676997B2, “Compositions and methods for stabilizing luminogenic substrates” (Promega Corporation, priority 2014, dated 2017).

SMILES strings stand for the structures.

Common to all, as to type: physicochemical
Data set [1] in a line: Stability of 1.25 mM furimazine in DMSO with or without 225 mM ATT, HPLC. Conditions: room temperature, 40° C., and 60° C., in the presence of light. The method, then: To further examine the stabilization of furimazine by ATT, stability of furimazine was measured at room temperature, 40°, and 60° C. in a different organic solvent, namely DMSO. This study was performed in the presence of light.
Specifically, a 2× stock solution of ATT in DMSO was prepared, in which the final concentration of ATT was 64.4 mg/mL. A 2× stock solution of furimazine in DMSO was also prepared, in which the final concentration of furimazine was 0.95 mg/mL. In one vial, the 2× ATT stock solution was diluted 1:1 in the 2× furimazine stock solution to create a solution containing 225 mM ATT and 1.25 mM furimazine. In a second vial, furimazine was diluted 1:1 in DMSO to create a control solution without the additive ATT (i.e., “no additive furimazine” control) and containing 1.25 mM furimazine.
The content of each vial was dispensed into separate, clear HPLC vials with insert and these HPLC vials were placed at room temperature (i.e., about 20° C.), 40° C., and 60° C. There was one HPLC vial per time point for each temperature.
Stability was measured by HPLC with 5 μL injection and detection at 262 nm. In each chromatogram, the area percentage of furimazine was determined.

Data set [2] is described as follows: Stability of 2.3 mM furimazine at 37° C. in the dark with or without 200 mM thionucleoside, luminescence with NANOLUC enzyme. Conditions: 50% propylene glycol:50% ethanol. The method, then: Specifically, a stock solution of furimazine in 50% propylene glycol:50% ethanol (v/v) was prepared, in which the final concentration of furimazine by absorbance was 4.6 mM. The furimazine stock solution was then diluted 1:1 in 50% propylene glycol:50% ethanol (v/v) to create a control solution without the additives ATT, TAK-0014 and TAK-0002 (i.e., “no additive furimazine” control) and containing 2.3 mM furimazine. 400 mM stock solutions of ATT, TAK-0014 and TAK-0002 were prepared in 50% propylene glycol:50% ethanol (v/v). Each of the ATT, TAK-0014 and TAK-0002 stock solutions was then diluted 1:1 in the 4.6 mM furimazine stock solution to yield solutions containing 200 mM ATT, TAK-0014 or TAK-0002, and 2.3 mM furimazine.
Each sample was separated into multiple amber tubes and incubated at 37° C. in a dark incubator (i.e., in the absence of light). Aliquots were taken from each sample at various time points and stored at −20° C. in the dark (i.e., in the absence of light) until all time points were collected.
To measure luminescence in the aliquots, each aliquot was diluted 1:50 in buffer (NANOGLO buffer, Promega Corporation) to yield 46 μM furimazine. These diluted aliquots were further diluted 1:10 in buffer (NANOGLO buffer, Promega Corporation) to yield 4.6 μM furimazine. 504 of each dilution (i.e., the twice diluted (0.1) aliquots) was mixed with 504, of CO2-independent media+10% fetal bovine serum (FBS) and 0.4 ng/mL luminogenic enzyme (NANOLUC enzyme, Promega Corporation). Luminescence was measured on a luminometer (GLOMAX Multi Plus luminometer, Promega Corporation). Relative light units (RLUs) were normalized for each time point by the RLU value at the 0 days time point. The percent activity from the 0 days time point (i.e., t=0) was plotted against time (days) for each sample as shown in FIG. 15A. In FIG. 15A, B-ATT denoted TAK-0002 and E-ATT denoted TAK-0014.
Error in Table 15 was the standard error from a regression calculation and Fz denoted furimazine, B-ATT denoted TAK-0002, and E-ATT denoted TAK-0014.

Data set [3] is described as follows: Stability of 1.25 mM coelenterazine-h-h in 50% ethanol and 50% propylene glycol with or without 225 mM ATT, HPLC and Arrhenius plots. The settings on record: 225 mM ATT, over time at different temperatures. Here is the method:
The stability of coelenterazine-h-h in the presence and absence of ATT was measured over time at different temperatures. Specifically, 1.25 mM coelenterazine-h-h was present in a solution of 50% ethanol and 50% propylene glycol (i.e., the solution without ATT) or a solution of 50% ethanol and 50% propylene glycol with 225 mM ATT (i.e., the solution with ATT). These two solutions were incubated at −20° C., room temperature (RT), 40° C., or 60° C. and analyzed at 0 days, 1 day, 3 days, 7 days, 15 days, and 30 days.
Following incubation, high performance liquid chromatography (HPLC) was utilized to identify the components of the respective solutions at each time point. Specifically, an Agilent 1100 HPLC instrument was used and equipped with a quaternary pump, thermostatted autosampler and column compartment, and a G1311B diode-array detector. The column used was a Synergi-MAX-RP (Phenomenex, Torrance, Calif.) 100 AÅ 50×4.6 2.5 μm. The run on the HPLC was a gradient run with 0.1% TFA in water and acetonitrile. Absorbance was measured at 262 nanometers (nm). Standards of coelenterazine-h-h and its known degradants were run to confirm both the retention time and absorbance trace. 5 μl of each solution was injected and the retention time of coelenterazine-h-h at room temperature was 5.5 minutes.
The results of the HPLC analysis are shown below in Tables 7 and 8 and FIGS. 3A and 3B, in which the values are reported as relative peak area percentage at 262 nm (i.e., the lamba max of the substrate). […] In each of FIGS. 3A and 3B, diamond is 1.25 mM coelenterazine-h-h incubated over time with or without 225 mM ATT, respectively, at −20° C., triangle is 1.25 mM coelenterazine-h-h incubated over time with or without 225 mM ATT, respectively, at room temperature (RT), star is 1.25 mM coelenterazine-h-h incubated over time with or without 225 mM ATT, respectively, at 40° C., and cross is 1.25 mM coelenterazine-h-h incubated over time with or without 225 mM ATT, respectively, at 60° C.
From the HPLC analysis, the half-life of coelenterazine-h-h in the presence of ATT at 60° C. was calculated to be 10 days while the half-life of coelenterazine-h-h in the absence of ATT at 40° C. and 60° C. was calculated to be 27 days and 8 days, respectively (see Table 9 below).
Additionally, Arrhenius plots were generated for coelenterazine-h-h in the presence and absence of ATT to calculate the half-life of coelenterazine-h-h at various temperatures. The Arrhenius equation is as follows: […]
In FIG. 11, the slope was −10740.9, the intercept was 30.0575, and R^2 was 0.9967.
In FIG. 12, the […], and R^2 was 0.9648.

Regarding `Cc1n[nH]c(=S)[nH]c1=O` [ATT, 6-methyl-3-thioxo-3,4-dihydro-1,2,4-triazin-5(2H)-one], in data set [1], the “stabilization of furimazine in DMSO against decomposition” value is “stabilized furimazine in DMSO against decomposition at different temperatures”. Also, the “stabilization of furimazine against decomposition in the absence of light” value in data set [2] is listed as “stabilized furimazine against decomposition in the absence of light”. Moreover, in data set [3], the “stabilization of coelenterazine-h-h against decomposition” value is listed as “stabilized coelenterazine-h-h against decomposition over time at different temperatures”.
